From ChEMBL document CHEMBL1139812, “Kinesin spindle protein (KSP) inhibitors. Part 8: Design and synthesis of 1,4-diaryl-4,5-dihydropyrazoles as potent inhibitors of the mitotic kinesin KSP” (Bioorg Med Chem Lett, 2007) come the findings set out here.

For data set [1], the target named is T1, Kinesin-like protein KIF11 (Homo sapiens, UniProt P52732).
T1 sequence (P52732 whole entry): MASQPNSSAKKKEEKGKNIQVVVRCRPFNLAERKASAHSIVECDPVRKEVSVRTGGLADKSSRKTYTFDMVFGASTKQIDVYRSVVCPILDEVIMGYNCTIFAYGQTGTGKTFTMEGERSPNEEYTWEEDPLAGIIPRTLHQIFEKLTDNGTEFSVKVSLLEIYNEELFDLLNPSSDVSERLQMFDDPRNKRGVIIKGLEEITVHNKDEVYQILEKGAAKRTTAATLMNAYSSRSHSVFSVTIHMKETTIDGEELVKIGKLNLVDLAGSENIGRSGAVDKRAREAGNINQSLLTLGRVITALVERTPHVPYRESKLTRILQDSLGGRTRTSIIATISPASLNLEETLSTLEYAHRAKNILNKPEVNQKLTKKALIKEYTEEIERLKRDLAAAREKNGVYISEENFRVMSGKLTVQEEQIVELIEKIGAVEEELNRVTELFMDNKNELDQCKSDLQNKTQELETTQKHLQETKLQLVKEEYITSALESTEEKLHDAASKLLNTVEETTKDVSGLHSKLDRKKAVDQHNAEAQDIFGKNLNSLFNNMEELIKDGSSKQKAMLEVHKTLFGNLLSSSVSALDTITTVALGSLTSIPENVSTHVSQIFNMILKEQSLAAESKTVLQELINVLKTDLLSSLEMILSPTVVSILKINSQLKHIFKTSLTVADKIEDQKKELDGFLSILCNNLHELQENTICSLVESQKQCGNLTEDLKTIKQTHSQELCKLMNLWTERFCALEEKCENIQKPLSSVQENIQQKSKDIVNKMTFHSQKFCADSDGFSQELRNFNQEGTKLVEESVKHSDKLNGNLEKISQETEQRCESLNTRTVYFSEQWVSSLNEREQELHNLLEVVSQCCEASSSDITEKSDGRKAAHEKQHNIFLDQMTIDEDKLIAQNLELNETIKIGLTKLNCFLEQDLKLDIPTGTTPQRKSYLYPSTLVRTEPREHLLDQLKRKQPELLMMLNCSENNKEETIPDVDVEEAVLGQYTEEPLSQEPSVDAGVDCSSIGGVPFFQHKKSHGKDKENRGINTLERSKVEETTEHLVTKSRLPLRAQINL
Briefly: Inhibition of kinesin spindle protein by ATPase assay.

Data set [2] addresses T1, Kinesin-like protein KIF11. Briefly: Inhibition of KSP-induced nucleolin phosphorylation in cell-based mitotic arrest assay. The class given is functional.
Data set [3] in a line: Solubility at pH 4. Conditions: buffer. Type of data set: physicochemical.
Data set [4] relates to KB 3-1. Briefly: Ratio of IC50 for KB-V-1 cells to IC50 for KB-3-1 cells. Type of data set: functional, Homo sapiens.
Data set [5] has as its target Voltage-gated inwardly rectifying potassium channel KCNH2 (Homo sapiens, UniProt Q12809). Description: Inhibition of hERG expressed in HEK cells. The class given is toxicity, cell-based, HEK293. On the technique in general: The hERG channel carries a current that helps repolarise heart muscle cells.
The subject of data set [6] is A2780. Description: Mitotic arrest in human A2780 cells xenografted nude mouse assessed as induction of phospho-histone H3 at 3.5 mg/kg. The class given is functional. In general terms: Xenograft models place foreign cells or tissue in a host animal.
Data set [7] in a line: Protein binding in mouse plasma. The class given is ADME, cell-free. The note with it: read-out: PB (converted).
The species entered for data set [8] is Homo sapiens. Description: Protein binding in human plasma. Conditions: read-out: PB (converted).

Bounds are passed on as bounds.

Voltage-gated inwardly rectifying potassium channel KCNH2, sequence (Q12809 whole entry): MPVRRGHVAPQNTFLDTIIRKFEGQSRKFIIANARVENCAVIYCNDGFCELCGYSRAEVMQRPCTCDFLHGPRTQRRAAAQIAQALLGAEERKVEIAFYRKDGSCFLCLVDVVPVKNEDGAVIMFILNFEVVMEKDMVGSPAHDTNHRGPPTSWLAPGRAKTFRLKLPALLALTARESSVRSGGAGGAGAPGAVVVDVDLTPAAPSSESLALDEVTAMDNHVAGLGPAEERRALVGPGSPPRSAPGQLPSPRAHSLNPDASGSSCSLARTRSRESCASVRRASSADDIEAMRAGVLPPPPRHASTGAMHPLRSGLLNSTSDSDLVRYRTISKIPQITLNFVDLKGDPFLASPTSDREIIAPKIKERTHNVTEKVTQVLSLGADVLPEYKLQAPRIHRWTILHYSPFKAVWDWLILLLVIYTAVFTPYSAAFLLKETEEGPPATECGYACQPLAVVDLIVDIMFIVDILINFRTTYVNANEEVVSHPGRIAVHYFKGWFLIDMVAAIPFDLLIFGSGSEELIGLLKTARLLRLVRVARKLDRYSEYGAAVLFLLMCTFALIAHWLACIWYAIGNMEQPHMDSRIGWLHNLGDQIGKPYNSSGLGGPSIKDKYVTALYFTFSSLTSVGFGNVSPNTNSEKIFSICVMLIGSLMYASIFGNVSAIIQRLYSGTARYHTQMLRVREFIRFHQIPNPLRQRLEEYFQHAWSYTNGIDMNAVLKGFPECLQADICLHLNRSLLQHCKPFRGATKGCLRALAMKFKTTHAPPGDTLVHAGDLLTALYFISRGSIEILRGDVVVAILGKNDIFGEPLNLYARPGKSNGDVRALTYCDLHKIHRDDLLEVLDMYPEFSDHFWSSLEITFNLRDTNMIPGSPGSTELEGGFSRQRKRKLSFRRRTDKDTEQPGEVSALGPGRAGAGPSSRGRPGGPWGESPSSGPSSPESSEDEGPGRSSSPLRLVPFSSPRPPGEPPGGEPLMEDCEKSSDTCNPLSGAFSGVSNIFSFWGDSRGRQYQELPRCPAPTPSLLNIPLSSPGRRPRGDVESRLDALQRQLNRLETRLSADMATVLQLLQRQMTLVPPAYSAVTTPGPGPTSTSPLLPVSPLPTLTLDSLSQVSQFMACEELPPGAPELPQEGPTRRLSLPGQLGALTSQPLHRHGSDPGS

Turning to `CC(=O)C1=NN(c2cc(F)ccc2F)CC1(CCCN1CCOCC1)c1ccccc1` (racemic), the IC50 – broadly, the concentration that inhibits the measured activity by half – in data set [1] is 4.2 nM. For the same molecule, the EC50 (as a rule, the concentration that produces a half-maximal response) in data set [2] was 53 nM.

On to `CC(=O)C1=NN(c2cc(C)ccc2F)CC1(CCCN1CCN(C(C)=O)CC1)c1ccccc1` (racemic), for which the IC50 in data set [1] was 2 nM. The same molecule displayed an EC50 in data set [2] of 27 nM.

Consider `CC(=O)C1=NN(c2cc(C)ccc2F)C[C@@]1(CCCN(C)C)c1ccccc1`, for which the concentration for half-maximal inhibition (IC50) was 0.2 nM in data set [1] and 3040 nM in data set [5]. In data set [2], this molecule registered a concentration for a half-maximal effect (EC50) of 3.2 nM. Further, in data set [3], the solubility (in general, how much of the substance goes into solution per volume) is above 4000 µg/mL. Also, the “Ratio IC50” value in data set [4] is listed as 1.6. In addition, the concentration for an effect of 99% (EC99) (as a rule, the concentration needed for an effect of 99%) in data set [6] is listed as 67 nM. The results for the fraction unbound in data set [7] and in data set [8] were 0.07 and 0.04, respectively.

The molecule `CC(=O)C1=NN(c2cc(F)ccc2F)CC1(CCCN1CCN(C(C)=O)CC1)c1ccccc1` (racemic) registered a 50% inhibitory concentration (IC50) in data set [1] of 3.8 nM. For the same molecule, a half-maximal response in data set [2] (EC50) required 78 nM.

In the case of `CC(=O)C1=NN(c2cc(F)ccc2F)CC1(CCCN(C)C)c1ccccc1` (racemic), the IC50 in data set [1] turned out to be 2.1 nM. The same molecule yielded an EC50 in data set [2] of 9.4 nM.

In data set [1], `CC(=O)C1=NN(c2cc(F)ccc2F)CC1(CCCN1CC2CC1CO2)c1ccccc1` (racemic) returned an IC50 of 1.2 nM. The molecule further came in with an EC50 in data set [2] of 11 nM.

As to `CC(=O)C1=NN2c3cc(F)ccc3OC[C@H]2[C@@]1(CCCN1CCN(C(C)=O)CC1)c1ccccc1`, a half-maximal effect in data set [2] (EC50) was put at 5 nM. Also, the solubility in data set [3] was above 4000 µg/mL. For the same molecule, the EC99 in data set [6] is 100 nM.

`CC(=O)C1=NN(c2cc(F)ccc2F)CC1(CCCN1CC(F)C1)c1ccccc1` (racemic): in data set [1], 5.2 nM corresponded to half-maximal inhibition (IC50). In addition, in data set [2], the EC50 came out at 40 nM.

In turn, `CC(=O)C1=NN(c2cc(Cl)ccc2F)CC1(CCCN1CCN(C(C)=O)CC1)c1ccccc1` (racemic) showed a half-inhibitory concentration (IC50) in data set [1] of 3.9 nM. In data set [2], this molecule returned an EC50 of 46 nM.

The molecule `CC(=O)C1=NN(c2cc(Br)ccc2F)CC1(CCCN1CCN(C(C)=O)CC1)c1ccccc1` (racemic) displayed an IC50 in data set [1] of 4.7 nM. In addition, in data set [2], the EC50 was 38 nM.

On to `CC(=O)C1=NN(c2cc(C(F)(F)F)ccc2F)CC1(CCCN1CCN(C(C)=O)CC1)c1ccccc1` (racemic), for which the IC50 in data set [1] was determined as 10.1 nM. The midpoint of the response in data set [2], the EC50, lay at 208 nM.

`CC(=O)C1=NN(c2ccccc2F)CC1(CCCN1CCN(C(C)=O)CC1)c1ccccc1` (racemic) registered an IC50 in data set [1] of 21.8 nM. The same molecule showed an EC50 in data set [2] of 368 nM.

In data set [1], `CC(=O)C1=NN(c2cc(F)ccc2F)CC1(CCCN1CCS(=O)(=O)CC1)c1ccccc1` (racemic) had an IC50 of 16.5 nM. Moreover, in data set [2], the EC50 was found to be 138 nM.

In data set [1], `CC(=O)C1=NN(c2cc(F)ccc2F)CC1(CCCN1CCCC1)c1ccccc1` (racemic) displayed an IC50 of 3.8 nM. The EC50 in data set [2] turned out to be 15 nM.

For the molecule `CC(=O)C1=NN(c2cc(F)ccc2F)CC1(CCCN(C)Cc1cc(C)no1)c1ccccc1` (racemic), in data set [1], the IC50 was found to be 4 nM. Moreover, the response in data set [2] was half-maximal at 567 nM (EC50).
